Values after ≈ are worked out from the molar mass of the structure shown. Where two headings read alike, the source gives them in different places.
How the values were obtained:
[1] = Stability of the compounds in aqueous solutions (HPLC residual content); format: physicochemical; conditions: water
Procedure: Each of the compounds of this invention was dissolved in water to a concentration of 0.5 (w/w)%. The aqueous solution was maintained at 40°±1° C., and sampled at certain time intervals. Each sample was subjected to high-performance liquid chromatographic analysis to measure the area of the peak of the compound at each sampling time, and to calculate the ratio of the area of the peak after the indicated period of time to that at the first sampling time. The results of the calculation were used to determine the contents (%) of the compound of this invention in the aqueous solution after the indicated periods of time, with the initial content of said compound set at 100%.

Bacillus subtilis PCI219 = experiment: Growth-inhibiting action on Bacillus subtilis (agar plate MIC); format: cell-based; conditions: Bacillus subtilis
Procedure: Each of the compounds of this invention was dissolved in nutrient agar media to final concentrations of 100, 50, 25, 12.5, 6.25, 3.13 and 1.56 μg/ml, to prepare agar plates for testing. Bacillus subtilis PCI219 was adjusted to a content of 1×10^6 viable cells/ml, in a culture broth, and a loopful of the broth was applied onto the agar plates. The plates were incubated for 20 hours at 37° C. under stationary conditions, and observed for the formation of colonies of Bacillus subtilis. The lowest of the concentrations at which no colonies were formed was taken to be minimum inhibitory concentration (MIC).

[2] = test system: mouse leukemia L1210 cells; experiment: In vitro proliferation-inhibiting action on mouse leukemia L1210 cells; format: cell-based; conditions: 48 hours at 37° C.
Procedure: Leukemia L1210 cells (1×10^5 /0.2 ml) were transplanted to female DBA/2 mice intraperitoneally. four days later, the ascitic fluid was collected and centrifuged to obtain proliferated L1210 cells. The L1210 cells collected were added to RPMI1640 medium containing bovine fetal serum and 2-mercaptoethanol, to obtain a suspension of L1210 cells having a final concentration of 5×10^4 cells/0.9 ml. Each of the compounds of this invention was dissolved in said culture medium to prepare solutions with final concentrations ranging from 0.062 to 100 μg/ml. 0.9 ml of the L1210 cell suspension and 0.1 ml of each test solution were mixed in petri dishes, and incubated for 48 hours at 37° C. in an incubator under an atmosphere of carbon dioxide gas. The number of L1210 cells was counted before and after the incubation, and that concentration of the compound which inhibited the proliferation of L1210 cells by 50% of the control's proliferation was determined (IC50).

mouse leukemia L1210 = experiment: Life-prolonging effect in mouse leukemia L1210; format: in vivo, mouse (male CDF1-SLC); conditions: once daily for 9 days, >125 effective
Procedure: (§1) Leukemia L1210 cells (1×10^5 /0.2 ml) were transplanted intraperitoneally into male CDF1 -SLC mice (6 mice/group). Each of the compounds of this invention was diluted with physiological saline to various concentrations. Each dilution was administered at a dose of 0.1 ml/10 g of body weight once daily for 9 days, starting on the day after the day of the transplantation. The mice of the control group were administered physiological saline.
The average number of days that the group receiving the compound of this invention survived was calculated. The FIGURE obtained was divided by the average number of survival days for the control group, and was multiplied by 100 (T/C (%)). T/C value more than 125 was considered to be effective.

[3] = Toxicity: change in body weight in mice transplanted with L1210; format: in vivo, mouse (male CDF1-SLC); conditions: once daily for 9 days
Procedure: as §1
Change in body weight, the measure of the toxicity of the compounds of this invention, was expressed by a difference between the change in body weight for the group receiving the compound of this invention and that for the control group receiving physiological saline and undergoing no transplantation.

Gram-positive bacteria = conditions: cited from earlier work
Gram-negative bacteria = conditions: cited from earlier work
mouse leukemia L-1210 = conditions: cited from earlier work
mouse leukemia FL-4 = conditions: cited from earlier work
Ehrlich carcinoma = conditions: cited from earlier work
sarcoma 180 (S-180) = conditions: cited from earlier work

| SMILES | remaining at 12 h [1] [%] | remaining at 24 h [1] [%] | remaining at 48 h [1] [%] | remaining at 72 h [1] [%] | remaining at 120 h [1] [%] | remaining at 168 h [1] [%] | IC50 [2] [mg/L] | T/C (%) (mouse leukemia L1210; 0.39 mg/kg/day) | T/C (%) (mouse leukemia L1210; 0.78 mg/kg/day) | T/C (%) (mouse leukemia L1210; 1.56 mg/kg/day) | T/C (%) (mouse leukemia L1210; 3.13 mg/kg/day) | T/C (%) (mouse leukemia L1210; 6.25 mg/kg/day) | T/C (%) (mouse leukemia L1210; 12.50 mg/kg/day) | T/C (%) (mouse leukemia L1210; 25.00 mg/kg/day) | T/C (%) (mouse leukemia L1210; 50.00 mg/kg/day) | Change in body weight (g) ([3]; 0.39 mg/kg/day) | Change in body weight (g) ([3]; 0.78 mg/kg/day) | Change in body weight (g) ([3]; 1.56 mg/kg/day) | Change in body weight (g) ([3]; 3.13 mg/kg/day) | Change in body weight (g) ([3]; 6.25 mg/kg/day) | also measured |
| --- | --- | --- | --- | --- | --- | --- | --- | --- | --- | --- | --- | --- | --- | --- | --- | --- | --- | --- | --- | --- | --- |
| Cl.Cl.Cl.N=C(N)NCCCCCCC(=O)NCC(=O)NCCCCNCCCN [Compound 1, 10-[N-(7-guanidinoheptanoyl)-glycyl]-1,5,10-triazadecane trihydrochloride] | 99.7 | 100 | 99.7 | 99.7 | 99.8 | 99.9 | 1.7 | 126 | > 250 | > 388 | > 667 | > 769 | > 528 | > 279 | 12.9 | +1.8 g | +2.7 g | +1.0 g | +0.8 g | +0.9 g | MIC (Bacillus subtilis PCI219; PCI219, nutrient agar, 20 hours at 37° C., read-out: MIC): 6.25 mg/L; Change in body weight (g) ([3]; 12.50 mg/kg/day): +0.2 g; Change in body weight ([3]; 25.00 mg/kg/day): -1.6 g |
| N=C(N)NCCCCC(O)CC(=O)NC(O)C(=O)NCCCCNCCCN (stereo not drawn) [Spergualin] | – | – | – | – | – | – | 4.6 (≈ 11.4 µM) | – | 129 | > 224 | > 665 | > 769 | > 700 | > 524 | > 342 | – | +0.8 g | +2.5 g | +1.2 g | +0.9 g | Residual content (%) of the compound in an aqueous solution ([1]; 12 h): 94.6%; Residual content (%) of the compound in an aqueous solution ([1]; 24 h): 90.8%; Residual content (%) of the compound in an aqueous solution ([1]; 48 h): 84.6%; Residual content (%) of the compound in an aqueous solution ([1]; 72 h): 78.5%; Residual content (%) of the compound in an aqueous solution ([1]; 120 h): 69.9%; Residual content (%) of the compound in an aqueous solution ([1]; 168 h): 65.1%; Change in body weight (g) ([3]; 12.50 mg/kg/day): +0.8 g; Change in body weight (g) ([3]; 25.00 mg/kg/day): +1.1 g; Change in body weight (g) ([3]; 50.00 mg/kg/day): +0.2 g; growth inhibitory activity (Gram-positive bacteria): growth inhibitory activity; growth inhibitory activity (Gram-negative bacteria): growth inhibitory activity; curing effect and life extension effect (mouse leukemia L-1210): distinctive curing effect and life extension effect; curing effect and life extension effect (mouse leukemia FL-4): distinctive curing effect and life extension effect; curing effect and life extension effect (Ehrlich carcinoma): distinctive curing effect and life extension effect; curing effect and life extension effect (sarcoma 180 (S-180)): distinctive curing effect and life extension effect |
| Cl.Cl.Cl.N=C(N)NCCCCCCC(=O)N[C@@H](CO)C(=O)NCCCCNCCCN [Compound 2, 10-[N-(7-guanidinoheptanoyl)-L-seryl]-1,5,10-triazadecane trihydrochloride] | 100 | 100 | 99.8 | 100 | 99.7 | 99.8 | 4.5 | 124 | > 346 | > 769 | > 769 | > 705 | > 612 | 100 | 12.8 | +2.7 g | +1.5 g | +1.3 g | +0.6 g | +1.0 g | MIC (Bacillus subtilis PCI219; PCI219, 20 h): 12.5 mg/L; Change in body weight ([3]; 12.50 mg/kg/day): -0.2 g |

Source: patent US4529549A, “Spergualin-related compounds and process for the preparation thereof” (Zaidan Hojin Biseibutsu Kagaku Kenkyu Kai, priority 1982, dated 1985)
